Measurements reported in paper PMC10937556, “Phenolic phytochemistry, in vitro, in silico, in vivo, and mechanistic anti-inflammatory and antioxidant evaluations of Habenaria digitata” (Frontiers in Pharmacology, 2024).
Where a name gives a salt, the structure may show the parent alone. Blank lines part the entries; values can stand above or below the compound they belong to.

Assays:
[1] = ABTS free radical scavenging assay
Procedure: The ABTS anti-radicals’ analysis was carried out according to [Shah et al. (2015)]. The ABTS solution was prepared by dissolving ABTS salt (192 mg) in distilled H2O, transferred to a flask (50 mL), and volume was adjusted. Thereafter, 1 mL of the preceding solution was added to 17 µL of K₂S₂O₈ (140 mM) and placed in the dark for 24 h s. The experiment’s ultimate ABTS dilution was achieved by mixing 1 mL of the reaction mixture with 50 mL of methanol. The ABTS solution (190 µL) was mixed with the sample solution (10 µL) and added to 96-well plates, which were then incubated at room temperature in dark for 2 h. Following incubation, the measurement of ABTS color intensity was conducted using a microplate reader at 734 nm. Positive control solutions were prepared at values of 1,000–62.5 µM. The percentage of ABTS scavenging was determined by using the following equation: % ABTS scavenging=Control−Sample/control×100.

[2] = H2O2 free radical scavenging activity
Procedure: The antioxidant potential of isolated compounds was determined using this approach. In a phosphate buffer solution (50 mM, pH 7.40), a solution of H2O2 (2 mM) was produced. The crude extract (0.10 mL) was measured in a test tube and diluted to 0.40 mL using phosphate buffer. Thereafter, H2O2 (0.60 mL) was added and thoroughly mixed. […] 230 nm was used to measure the absorbance of the sample and the standard ([Sadiq et al., 2018]). For all the crude samples, the exact process was followed. According to the procedure, the inhibition percentage and IC50 values were computed.

[3] = DPPH free radical scavenging assay
Procedure: The DPPH (anti-radicals) investigation was carried out according to our earlier reported protocols. Initially, a methanolic DPPH solution was prepared with a concentration of 0.1%. Subsequently, 100 µL of this solution was mixed with an equal volume of the test samples (100 µL) in 96-well plates, following a 30-min incubation period at 25°C ± 3 °C in the dark. Solutions with concentrations ranging from […] were prepared. Five concentrations of 1,000, 500, 250, 125, and 62.5 µM of the Trolox methanolic solution ([…]) were formed. A color reduction in DPPH was observed after incubation; a microplate reader was used, and absorbance was measured at 540 nm ([Mahnashi et al., 2022a]; [Huneif et al., 2022]). The percentage of scavenging was determined by the formula: Scavenging effect %=control absorbance−sample absorbance/control absorbance×100.

[4] = test system: carrageenan-induced paw edema; experiment: Carrageenan-induced paw edema; type: in vivo, mice; conditions: dose 5 mg/kg
Procedure: Mice of both sexes (25–30 g) were used for in vivo anti-inflammatory activity of test samples on the carrageenan-induced inflammation model ([Munir et al., 2020]). Mice were distributed into five groups, with eight animals in each group, divided at random. Group-I served as the negative control and received DMSO at a dose of 10 mL/kg body weight. Group-II served as a positive control, which received aspirin at a dose of 100 mg/kg body weight. […] Each mouse received 1 percent (w/v) saline solution (0.05 mL) of carrageenan in the sub-planter region after a 30-min interval. The paw edema volume was determined using a plethysmometer (LE 7500-plan lab S.L) at 1–5 h intervals after carrageenan was given. […] The percentages of inhibition of inflammation were calculated using the formula given below: % inhibition=EC−ET/EC×100, where “EC” is the average edema of control and “ET” is the edema of the tested group.

[5] = test system: prostaglandin E2-induced paw edema; experiment: Prostaglandin E2-induced paw edema; conditions: 50 mg/kg
Procedure: (§1) Employing prostaglandin E2, bradykinin, leukotriene, and histamine induced paw edema assays; the potential anti-inflammatory mechanism of the isolated compound was investigated. […] Sub-planter injections of prostaglandin E2 (0.01 mg/mL) or 10 mg/mL leukotriene or bradykinin (20 mg/mL) or 0.1 mL histamine (1 mg/mL) produced paw edema after 1 h. Each mouse’s paw volume was assessed immediately before and after sub-planter injection of various irritants (inflammatory agents) at 1–5 h.

[6] = test system: leukotriene-induced paw edema; experiment: Leukotriene-induced paw edema; conditions: standard drug, 3rd hour
Procedure: as §1

SOD = experiment: In vivo antioxidant: SOD activity in brain, heart, liver; parameters: species or system mice; conditions: p < 0.05, D-galactose aging mice
[7] = test system: histamine-induced paw edema; experiment: Histamine-induced paw edema; conditions: reference drug, 1 h
Procedure: as §1

ABTS IC50 [1]: 0.12 µg/mL | H2O2 IC50 [2]: 02 µg/mL | DPPH IC50 [3]: 0.47 µg/mL
SMILES: O=C1O[C@H]([C@@H](O)CO)C(O)=C1O [AA, ascorbic acid, reference compound]
ABTS % inhibition ([1]; 62.5 µg/mL): 81.12 ± 0.34% | ABTS % inhibition ([1]; 125 µg/mL): 84.47 ± 0.49% | ABTS % inhibition ([1]; 250 µg/mL): 87.75 ± 0.14% | ABTS % inhibition ([1]; 500 µg/mL): 91.59 ± 0.30% | ABTS % inhibition ([1]; 1,000 µg/mL): 95.85 ± 0.18% | H2O2 % inhibition ([2]; 62.5 µg/mL): 71.73 ± 0.66% | H2O2 % inhibition ([2]; 125 µg/mL): 73.70 ± 0.35% | H2O2 % inhibition ([2]; 250 µg/mL): 78.07 ± 0.62% | H2O2 % inhibition ([2]; 500 µg/mL): 83.01 ± 0.42% | H2O2 % inhibition ([2]; 1,000 µg/mL): 87.50 ± 2.26% | DPPH % inhibition ([3]; 62.5 µg/mL): 81.35 ± 0.18% | DPPH % inhibition ([3]; 125 µg/mL): 84.20 ± 0.15% | DPPH % inhibition ([3]; 250 µg/mL): 88.42 ± 0.11% | DPPH % inhibition ([3]; 500 µg/mL): 93.62 ± 0.17% | DPPH % inhibition ([3]; 1,000 µg/mL): 97.53 ± 0.20%

SMILES: CC(=O)Oc1ccccc1C(=O)O [Aspirin, reference compound]
Percentage inhibition of paw edema ([4]; 1 h): 47.50 ± 1.10 % | Percentage inhibition of paw edema ([4]; 2 h): 53.61 ± 1.45 % | Percentage inhibition of paw edema ([4]; 3 h): 54.24 ± 1.34 % | Percentage inhibition of paw edema ([4]; 4 h): 57.90 ± 1.93 % | Percentage inhibition of paw edema ([4]; 5 h): 58.62 ± 1.53 % | Percentage inhibition of paw edema ([4]; 5 h, listed as aspirin): 58.62%

SMILES: Cc1ccc(-c2cc(C(F)(F)F)nn2-c2ccc(S(N)(=O)=O)cc2)cc1 [Celecoxib, reference compound]
Effect on increased PGE2 level [5]: significant reduction

SMILES: CC(C)(O)c1ccccc1CC[C@@H](SCC1(CC(=O)O)CC1)c1cccc(/C=C/c2ccc3ccc(Cl)cc3n2)c1 [Montelukast, reference compound]
Percentage inhibition of leukotriene-induced paw edema [6]: 67.02 ± 1.74%

SMILES: Cc1c(C)c2c(c(C)c1O)CCC(C)(C(=O)O)O2 (stereo not shown) [Trolox, reference compound]
SOD activity compared to the model group (SOD): higher

SMILES: CN(C)CCC(c1ccc(Cl)cc1)c1ccccn1 (stereo not shown) [chlorpheniramine maleate, reference compound]
Percentage inhibition of histamine-induced paw edema [7]: 71.62 ± 1.16%
